Experimental data reported in paper PMC12378621, “Benzo-ring modification on Malaria Box hit MMV008138: effects on antimalarial potency and microsomal stability” (RSC Medicinal Chemistry, 2025).
Where “and” joins values, the source holds several entries; their conditions need not be identical. Equal values may be shown once. Entries after “also recorded” stand apart in the source; their conditions may differ.

Tests used:
[1] = test system: P. falciparum (Dd2 strain); experiment: ABS P. falciparum growth inhibition, SYBR Green I assay, 72 h endpoint; format: cell-based, Plasmodium falciparum; conditions: for EC50: Plasmodium falciparum, DD2, Table 2, enantiopure, SYBR Green I, 72 h endpoint, average ± S.E.M, read-out: Dd2 strain P. falciparum growth inhibition EC50
Description: Parasites were maintained in O-positive human erythrocytes (Grifols, Memphis, TN, USA) at 5% hematocrit in RPMI 1640 medium supplemented with 5 g L^−1 Albumax I (Gibco Life Technologies), 2 g L^−1 glucose (Sigma-Aldrich), 2.3 g L^−1 sodium bicarbonate (Sigma-Aldrich), 370 μM hypoxanthine (Sigma-Aldrich), 25 mM HEPES, and 20 mg L^−1 gentamicin (Gibco Life Technologies). The parasites were kept at 37 °C under reduced-oxygen conditions (5% CO2, 5% O2, and 90% N2).
(§1) […]. MMV008138 (1) was used as control. The percentage of growth was normalized to that of untreated control parasites in the presence of 0.1% DMSO. Background determinations were made using uninfected erythrocytes. Two or more independent experiments in duplicate were performed. The EC50 values were calculated with GraphPad Prism 9 (GraphPad Software Ltd.) using nonlinear regression curve fitting with variable slope (four parameters) and represent the average and their standard error of the mean (S.E.M.). To assess whether 20a–e specifically targeted the apicoplast, the recovery of growth in the presence of inhibitor and isopentenyl diphosphate (IPP) was performed as described previously.[8] Briefly, parasites were grown in the presence or absence of 200 μM IPP along with a serial dilution (10 μM to 0.01 μM) or single concentration (10 or 20 μM) of drug. […] All conditions were set in 96-well half area plates using highly synchronous ring-stage parasite cultures (100 μL per well at 1% hematocrit and 1% parasitemia) and incubated for 72 h under normal culture conditions. Parasite growth was measured by the SYBR green I assay.

[2] = test system: P. falciparum (Dd2 strain); experiment: Metabolic rescue of parasite growth by isopentenyl diphosphate (IPP) supplementation; format: cell-based, Plasmodium falciparum
Description: as §1

in vitro [3] = conditions: male, mouse, microsomes; for % remaining, Replicate 1 / Replicate 2: 1 µM; for remaining at 0.5 min, 1 µM / remaining at 5 min, 1 µM / remaining at 10 min, 1 µM / remaining at 0.25 h, 1 µM / remaining at 20 min, 1 µM / remaining at 0.5 h, 1 µM: % remaining, Replicate 1 / Replicate 2
Description: Metabolic stability of 1 was studied in pooled male mouse liver microsomes (final concentration 0.5 mg/mL, 5 mM MgCl 2, 100 mM phosphate buffer). The final concentration of test […]
The mixture was pre-warmed 37°C for 5 min before addition of 50 μL of 10 mM NADPH solution at the final concentration of 1 mM and carried out at 37°C. 50 μL of ultra-pure H2O was used instead of NADPH solution in the […]
negative control. […] Drug […]
concentrations were determined using triple quad LC-MS (Table S5).
(§2) (1 picture or pasted object on this page, not shown here)

in vivo = conditions: mouse
Description: 3. Pharmacokinetics of 1 in mice
Pharmacokinetic analysis of 1 in mice was performed by Pharmaron (Beijing, China). Three mice each (23 ± 1 g) were used for oral (40 mg/kg, gavage, conscious) and for IV (10 mg/kg, lateral tail vein with anesthesia) administration. The vehicle for both routes wa s 20% DMSO, 60% PEG400 and 20% SBE-β-CD (30% w/v) in water. Stock concentrations were 4 mg/mL (both oral and IV respectively), and mice were dosed at 10.0 and 2.5 mL/kg (oral and IV respectively).
Quantitation was performed by triple-quad LC-MS.

[4] = test system: Plasmodium berghei ANKA expressing luciferase (PbGFP-Luccon); experiment: In vivo efficacy in P. berghei-infected mice (luminescence on Day 7)
Description: 2. In vivo efficacy studies of 1 (NYU) in P. berghei-infected mice (po and iv) Efficacy of 1 in P. berghei-infected mice was assessed at the Anti-Infectives Core Facility, Department of Microbiology, Grossman School of Medicine, New York University.
A. Oral Administration Protocol
Three groups of five female Swiss Webster mice weighing 25 to 30 g were used for vehicle […]
berghei ANKA expressing luciferase (PbGFP-Luccon) obtained from a donor infected mouse.10 […]
2 to 6 and imaged on day 7.
Figure S1. Dosing and imaging timeline of P. berghei-infected mice. […]
Day 7 as described in the text.
The vehicle for all groups was 0.5% (hydroxypropyl)methyl cellulose, 0.5% Tween-80.
For the surviving mice, o n day 7 after infection, mice were anesthetized by inhalation of isofluorane and injected via i.p. with 150 mg/kg of luciferase substrate dissolved in PBS (D-Luciferin Potassium Salt , Gold Biotechnology ).
Mice were imaged 5 to 10 min after inj ection of luciferin using an IVIS imager (Lumina II In Vivo Imaging System; Perkin -Elmer). The data acquisition and analysis were performed with LivingImage (Xenogen). Accumulated light intensity was measured in each mouse to determine the baseline infection levels before treatment .
as §2
B. IV Administration Protocol
One group of four female Swiss Webster mice weighing 25 to 30 g were used for vehicle control, and groups of five mice were used for 1 treatment (IV, 2 x 30 mg/kg/d) and the positive […]
On Day 0, mice were infected via intraperitoneal (i.p.) […]
from a donor infected mouse. 10 As shown below in Figure S2 (and legend), mice were treated […]
Figure S2. Dosing and imaging timeline of P. berghei-infected mice. Vehicle and 1 (30 mpk) treatments were administered IV twice -daily on Days 2-6. […]
administered i .p. once-daily. Mice were imaged on Day 7, as described in the text.
The vehicle for this study was 30%PEG, 40% Captisol (30%w/v solution).
Table S2. Luminescence Data after background subtraction for IV dosing of Vehicle, 1, and IP […]
Table S9. Concentration of 20c vs time in mice. […]
Figure S6. Dosing and imaging timeline of P. berghei-infected mice. […]

in vitro [5] = conditions: female, CD-1, mouse, microsomes, pH 7.4
Description: Mouse microsomal stability of 20a, 20c, 20d was first assessed in our laboratory. […]
and coumarin were used as controls . Microsomal stability was assessed by ultra-performance liquid chromatography and high -resolution mass spectrometry […]
MA). Potassium phosphate monobasic, potassium phosphate dibasic, and coumarin were purchased from Sigma-Aldrich (St. Louis, MO). Briefly, compound incubations were carried out by the addition of mouse liver microsomes (0.5 mg/ml) in 0.05 M potassium phosphate buffer (pH 7.4), solution A and B, and preincubated at 37°C for 5 min. Control experiments were also carried out in the absence of NADPH solution A and B. Coumarin reaction was used as positive control. Reactions were terminated by adding acetonitrile. Sample analysis was performed on an IonKey/MS system composed of an ACQUITY UPLC M-Class, the ionKey source, and an iKey BEH C18 130 Å 1.7 µm 150 µm x 50 mm column coupled to a Synapt G2-Si mass spectrometer (Waters Corporation, Milford, MA, USA). Separation was accomplished using a binary gradient system consisting of 0.1% formic acid in water (mobile phase A) and 0.1% formic acid in acetonitrile (mobile phase B). The linear gradient was programmed as follows: 0-3 min 1% B, 3- […]
was 3 µL/min, the injection volume was 3 µL in full loop mode, and the iKey temperature was set at 40°C. MS analyses were performed acquiring in MSE mode from 80 to 1500 m/z in positive electrospray ionization mode with a capillary voltage of 3 kV. Data were collected in two channels all the time: low collision energy (6.0 V), for the molecular ions, and high collision energy (15-40 V), for product ions. The source temperature was set at 110°C. Leucine […]
scan at 20 s intervals. Infusion flow rate for lock mass was 1 μL/min. The microsomal stability was determined using MassLynx software (Waters Corporation, Milford, MA, USA). Relative amounts were calculated by comparing the peak area of each evaluated compound at time 0 minutes to its corresponding area at times 45, 90 and 180 minutes to return a ratio.

[6] = iv, 10 mg/kg, plasma concentration
[7] = po, 40 mg/kg, plasma concentration
[8] = Table S10, 40 mg/kg 1 x daily PO Days 2-6, imaged Day 7

SMILES: O=C(O)[C@@H]1Cc2c([nH]c3cc(F)ccc23)[C@@H](c2ccc(Cl)cc2Cl)N1 [Compound 20c]
- EC50 [1]: 501 ± 47 nM
- % recovery (200 μM IPP) ([2]; drug at 2.5 μM): 100%@2.5 μM
- % remaining, Replicate 1 / Replicate 2 (in vitro [3]; 5 min): 105.2%
- % remaining, Replicate 1 / Replicate 2 (in vitro [3]; 10 min): 105.5%
- % remaining, Replicate 1 / Replicate 2 (in vitro [3]; 0.25 h): 100.5%
- % remaining, Replicate 1 / Replicate 2 (in vitro [3]; 20 min): 100.4%
- % remaining, Replicate 1 / Replicate 2 (in vitro [3]; 0.5 h): 85.7%
- remaining at 0.5 min, 1 µM (in vitro [3]): 100%
- remaining at 5 min, 1 µM (in vitro [3]): 90.9%
- remaining at 10 min, 1 µM (in vitro [3]): 91.4%
- remaining at 0.25 h, 1 µM (in vitro [3]): 84.7%
- remaining at 20 min, 1 µM (in vitro [3]): 85.9%
- remaining at 0.5 h, 1 µM (in vitro [3]): 95.2%
- AUC(0-inf) (in vivo; iv, 10 mg/kg): 49.6 µM·h
- AUC(0-t) (in vivo; iv, 10 mg/kg): 48.7 µM·h
- C0 (in vivo; iv, 10 mg/kg): 34.5 µM
- clearance (in vivo; iv, 10 mg/kg): 8.85 mL/min/kg
- tlast (in vivo; iv, 10 mg/kg): 24 h
- concentration at 24 h (in vivo; iv, 10 mg/kg, Cmin): 0.1 ± 0.1 µM
- concentration at 0.083 h (in vivo; [6]): 33.3 µM
- concentration at 0.25 h (in vivo; [6]): 30.9 ± 4 µM
- concentration at 0.5 h (in vivo; [6]): 14.4 ± 4.1 µM
- concentration at 1 h (in vivo; [6]): 9.7 ± 2 µM
- concentration at 2 h (in vivo; [6]): 3.3 ± 1.5 µM
- concentration at 4 h (in vivo; [6]): 1.4 ± 0.4 µM
- concentration at 8 h (in vivo; [6]): 1.4 ± 0.3 µM
- concentration at 24 h (in vivo; [6]): 0.1 ± 0.1 µM
- half-life (in vivo; iv, 10 mg/kg, t1/2): 4.96 h
- AUC0-inf (in vivo; po, 40 mg/kg): 114 µM·h
- AUC(0-inf) (in vivo; po, 40 mg/kg): 114 µM·h
- AUC(0-t) (in vivo; po, 40 mg/kg): 110 µM·h
- Cmax (in vivo; po, 40 mg/kg): 19.9 ± 8.1 µM
- Tmax (in vivo; po, 40 mg/kg): 0.5 h
- oral AUC0-inf higher than that of 1 (in vivo; po, 40 mg/kg): 30%
- tlast (in vivo; po, 40 mg/kg): 24 h
- bioavailability (in vivo; po, 40 mg/kg, % F): 58%
- bioavailability (in vivo; po, 40 mg/kg, %F): 57.8%
- concentration at 24 h (in vivo; po, 40 mg/kg, Cmin): 0.6 ± 0.6 µM
- concentration at 0.25 h (in vivo; [7]): 19.8 ± 8.1 µM
- concentration at 0.5 h (in vivo; [7]): 19.9 ± 3.2 µM
- concentration at 1 h (in vivo; [7]): 13.9 ± 10.8 µM
- concentration at 2 h (in vivo; [7]): 8.8 ± 5.9 µM
- concentration at 4 h (in vivo; [7]): 10 ± 3.7 µM
- concentration at 8 h (in vivo; [7]): 3.9 ± 0.7 µM
- concentration at 24 h (in vivo; [7]): 0.6 ± 0.06 µM
- half-life (in vivo; po, 40 mg/kg, t 1/2): 5.2 h
- half-life (in vivo; po, 40 mg/kg, t1/2): 5.17 h
- reduction of luminescence relative to vehicle control ([4]; 40 mg/kg po Days 2-6, Day 7): did not reduce luminescence
- reduction in parasitemia / efficacy ([4]; P. berghei mouse model, oral dosing (20c 5 × 40 mg per kg per day)): no reduction in parasitemia; also recorded: not efficacious
- Luminescence after background subtraction AVG [4, 8]: 9.7E+06
- Luminescence after background subtraction, individual mice [4, 8]: 6.51E+05 and 2.35E+06 and 3.10E+06 and 4.05E+05 and 1.33E+06

SMILES: O=C(O)[C@@H]1Cc2c([nH]c3c(F)cccc23)[C@@H](c2ccc(Cl)cc2Cl)N1 [Compound 20d]
- loss of growth inhibition potency (EC50) relative to 1 ([1]; Dd2 strain): ≤ 3 fold
- EC50 [1]: 717 ± 73 nM
- % recovery (200 μM IPP) ([2]; drug at 10 μM): 100%@10 μM
- % remaining, Replicate 1 / Replicate 2 (in vitro [3]; 5 min): 56.5%
- % remaining, Replicate 1 / Replicate 2 (in vitro [3]; 10 min): 41.8%
- % remaining, Replicate 1 / Replicate 2 (in vitro [3]; 0.25 h): 31.5%
- % remaining, Replicate 1 / Replicate 2 (in vitro [3]; 20 min): 28.2%
- % remaining, Replicate 1 / Replicate 2 (in vitro [3]; 0.5 h): 25.1%
- remaining at 0.5 min, 1 µM (in vitro [3]): 100%
- remaining at 5 min, 1 µM (in vitro [3]): 61.1%
- remaining at 10 min, 1 µM (in vitro [3]): 42.6%
- remaining at 0.25 h, 1 µM (in vitro [3]): 34.3%
- remaining at 20 min, 1 µM (in vitro [3]): 30.3%
- remaining at 0.5 h, 1 µM (in vitro [3]): 24.8%

SMILES: O=C(O)[C@@H]1Cc2c([nH]c3cccc(F)c23)[C@@H](c2ccc(Cl)cc2Cl)N1 [Compound 20a]
- EC50 [1]: 451 ± 28 nM
- % recovery (200 μM IPP) ([2]; drug at 2.5 μM): 100%@2.5 μM
- half-life (in vitro [5]): ~0.167 h
